Experimental data from the NIST ThermoML archive (doi:10.1021/je060271a).
± gives the expanded uncertainty stated by the source.

Conditions: Liquid, Vibrating tube method

CCCCCC(=O)OCC(COC(=O)CCCCC)(COC(=O)CCCCC)COC(=O)CCCCC [pentaerythritol tetrahexanoate]
Conditions	mass density [kg/m3]
323.16 K, 30799 kPa	992.6 ± 1.2
323.16 K, 30820 kPa	992.6 ± 1.2
323.16 K, 30845 kPa	992.6 ± 1.2
323.16 K, 30870 kPa	992.7 ± 1.2
323.16 K, 30895 kPa	992.6 ± 1.2
323.16 K, 30916 kPa	992.5 ± 1.2
323.16 K, 30942 kPa	992.7 ± 1.2
323.16 K, 30968 kPa	992.6 ± 1.2
323.16 K, 30994 kPa	992.7 ± 1.2
323.16 K, 31020 kPa	992.9 ± 1.2
323.16 K, 31046 kPa	992.7 ± 1.2
323.16 K, 31070 kPa	992.8 ± 1.2
323.16 K, 31096 kPa	992.8 ± 1.2
323.16 K, 31122 kPa	992.8 ± 1.2
323.16 K, 31139 kPa	992.8 ± 1.2
323.16 K, 31159 kPa	992.8 ± 1.2
323.16 K, 31180 kPa	992.8 ± 1.2
323.16 K, 31200 kPa	992.8 ± 1.2
323.16 K, 31217 kPa	992.9 ± 1.2
323.16 K, 31237 kPa	992.9 ± 1.2
323.16 K, 31258 kPa	992.9 ± 1.2
323.16 K, 31278 kPa	993 ± 1.2
323.16 K, 31295 kPa	992.7 ± 1.2
323.16 K, 31315 kPa	993 ± 1.2
323.16 K, 31335 kPa	992.9 ± 1.2
323.16 K, 31356 kPa	993 ± 1.2
323.16 K, 31378 kPa	992.9 ± 1.2
323.16 K, 31395 kPa	992.9 ± 1.2
323.16 K, 31412 kPa	993 ± 1.2
323.16 K, 31433 kPa	993.1 ± 1.2
323.16 K, 31554 kPa	993.1 ± 1.2
323.16 K, 31575 kPa	993.1 ± 1.2
323.16 K, 31592 kPa	993.1 ± 1.2
323.16 K, 31613 kPa	993 ± 1.2
323.16 K, 31635 kPa	993 ± 1.2
323.16 K, 31777 kPa	993.1 ± 1.2
323.16 K, 31798 kPa	993.2 ± 1.2
323.16 K, 31820 kPa	993.2 ± 1.2
323.16 K, 31838 kPa	993.2 ± 1.2
323.16 K, 31860 kPa	993.2 ± 1.2
323.16 K, 31882 kPa	993.2 ± 1.2
323.16 K, 31905 kPa	993.3 ± 1.2
323.16 K, 31927 kPa	993.3 ± 1.2
323.16 K, 31950 kPa	993.2 ± 1.2
323.16 K, 31973 kPa	993.4 ± 1.2
323.16 K, 31996 kPa	993.3 ± 1.2
323.16 K, 32016 kPa	993.3 ± 1.2
323.16 K, 32032 kPa	993.4 ± 1.2
323.16 K, 32048 kPa	993.4 ± 1.2
323.16 K, 32064 kPa	993.3 ± 1.2
323.16 K, 32081 kPa	993.4 ± 1.2
323.16 K, 32097 kPa	993.3 ± 1.2
323.16 K, 32114 kPa	993.3 ± 1.2
323.16 K, 32132 kPa	993.4 ± 1.2
323.16 K, 32149 kPa	993.3 ± 1.2
323.16 K, 32165 kPa	993.4 ± 1.2
323.16 K, 32183 kPa	993.4 ± 1.2
323.16 K, 32202 kPa	993.5 ± 1.2
323.16 K, 32221 kPa	993.5 ± 1.2
323.16 K, 32240 kPa	993.4 ± 1.2
323.16 K, 32260 kPa	993.5 ± 1.2
323.16 K, 32366 kPa	993.4 ± 1.2
323.16 K, 32374 kPa	993.5 ± 1.2
323.16 K, 32380 kPa	993.5 ± 1.2
323.16 K, 32383 kPa	993.5 ± 1.2
323.17 K, 1378.9 kPa	973.7 ± 1.2
323.17 K, 2060 kPa	974 ± 1.2
323.17 K, 2070.1 kPa	974.2 ± 1.2
323.17 K, 15528 kPa	983.3 ± 1.2
323.17 K, 15553 kPa	983.3 ± 1.2
323.17 K, 15582 kPa	983.4 ± 1.2
323.17 K, 15606 kPa	983.4 ± 1.2
323.17 K, 15845 kPa	983.4 ± 1.2
323.17 K, 15865 kPa	983.5 ± 1.2
323.17 K, 15889 kPa	983.4 ± 1.2
323.17 K, 15909 kPa	983.5 ± 1.2
323.17 K, 15932 kPa	983.5 ± 1.2
323.17 K, 15952 kPa	983.3 ± 1.2
323.17 K, 15976 kPa	983.5 ± 1.2
323.17 K, 16001 kPa	983.4 ± 1.2
323.17 K, 16021 kPa	983.6 ± 1.2
323.17 K, 16045 kPa	983.5 ± 1.2
323.17 K, 16069 kPa	983.6 ± 1.2
323.17 K, 16089 kPa	983.6 ± 1.2
323.17 K, 16114 kPa	983.7 ± 1.2
323.17 K, 16135 kPa	983.7 ± 1.2
323.17 K, 16160 kPa	983.6 ± 1.2
323.17 K, 16308 kPa	983.8 ± 1.2
323.17 K, 16329 kPa	983.7 ± 1.2
323.17 K, 16337 kPa	983.7 ± 1.2
323.17 K, 16338 kPa	983.8 ± 1.2
323.17 K, 16340 kPa	983.8 ± 1.2
323.17 K, 19154 kPa	985.4 ± 1.2
323.17 K, 19182 kPa	985.6 ± 1.2
323.17 K, 19210 kPa	985.5 ± 1.2
323.17 K, 19238 kPa	985.5 ± 1.2
323.17 K, 19267 kPa	985.7 ± 1.2
323.17 K, 19296 kPa	985.6 ± 1.2
323.17 K, 19320 kPa	985.7 ± 1.2
323.17 K, 19350 kPa	985.6 ± 1.2
323.17 K, 20368 kPa	986.3 ± 1.2
323.17 K, 20425 kPa	986.4 ± 1.2
323.17 K, 22257 kPa	987.5 ± 1.2
323.17 K, 22284 kPa	987.5 ± 1.2
323.17 K, 22311 kPa	987.5 ± 1.2
323.17 K, 22338 kPa	987.6 ± 1.2
323.17 K, 22361 kPa	987.6 ± 1.2
323.17 K, 22388 kPa	987.5 ± 1.2
323.17 K, 22416 kPa	987.7 ± 1.2
323.17 K, 22443 kPa	987.6 ± 1.2
323.17 K, 22466 kPa	987.7 ± 1.2
323.17 K, 22493 kPa	987.7 ± 1.2
323.17 K, 22520 kPa	987.5 ± 1.2
323.17 K, 25533 kPa	989.4 ± 1.2
323.17 K, 25562 kPa	989.5 ± 1.2
323.17 K, 25592 kPa	989.5 ± 1.2
323.17 K, 25621 kPa	989.5 ± 1.2
323.17 K, 25651 kPa	989.4 ± 1.2
323.17 K, 25676 kPa	989.5 ± 1.2
323.17 K, 25737 kPa	989.6 ± 1.2
323.17 K, 25767 kPa	989.6 ± 1.2
323.17 K, 25792 kPa	989.7 ± 1.2
323.17 K, 25823 kPa	989.7 ± 1.2
323.17 K, 25853 kPa	989.7 ± 1.2
323.17 K, 25884 kPa	989.6 ± 1.2
323.17 K, 25909 kPa	989.8 ± 1.2
323.17 K, 25940 kPa	989.8 ± 1.2
323.17 K, 25972 kPa	989.8 ± 1.2
323.17 K, 26003 kPa	989.7 ± 1.2
323.17 K, 26033 kPa	989.7 ± 1.2
323.17 K, 26762 kPa	990.3 ± 1.2
323.17 K, 26791 kPa	990.3 ± 1.2
323.17 K, 26815 kPa	990.1 ± 1.2
323.17 K, 26845 kPa	990.3 ± 1.2
323.17 K, 26872 kPa	990.3 ± 1.2
323.17 K, 26901 kPa	990.4 ± 1.2
323.17 K, 26930 kPa	990.4 ± 1.2
323.17 K, 26959 kPa	990.3 ± 1.2
323.17 K, 26984 kPa	990.3 ± 1.2
323.17 K, 27013 kPa	990.3 ± 1.2
323.17 K, 27043 kPa	990.5 ± 1.2
323.17 K, 27073 kPa	990.4 ± 1.2
323.17 K, 27102 kPa	990.4 ± 1.2
323.17 K, 27127 kPa	990.4 ± 1.2
323.17 K, 27157 kPa	990.4 ± 1.2
